Test results taken from patent publication US20260199305A1, “LONG-ACTING ORAL PHARMACEUTICAL COMPRISING HYPOXIA-INDUCIBLE FACTOR PROLYL HYDROLASE INHIBITOR AND USE THEREOF” (Kind Pharmaceutical, priority 2023, published 2026).

Tested on: Normal Mice
Assay: Hemoglobin increase in normal mice, oral QD, TIW, QW
Type: in vivo, C57BL/6J mice
Excerpt: This experiment evaluated the effects of different dosing frequencies of the test compound Comp-1 at the same weekly dose on hemoglobin and various routine hematological parameters in male C57BL/6J mice.
After acclimatization feeding, on Day 0, submandibular vein blood was collected from 92 male mice aged 6-8 weeks for routine hematological analysis. Based on the Day 0 Hb (hemoglobin) results, 80 mice were selected for use in this experiment and divided into groups as follows: Vehicle (QD, 5 mice), Comp-1 (4.5 mg/kg, QD, 5 mice), Comp-1 (10.5 mg/kg, TIW, 5 mice), Comp-1 (31.5 mg/kg, QW, 5 mice), Comp-1 (9 mg/kg, QD, 15 mice), Comp-1 (21 mg/kg, TIW, 15 mice), Comp-1 (63 mg/kg, QW, 15 mice), Comp-1 (15 mg/kg, QD, 5 mice), Comp-1 (35 mg/kg, TIW, 5 mice), and Comp-1 (105 mg/kg, QW, 5 mice). On Day 14 and Day 28, submandibular vein blood was collected for routine hematological analysis. Quantitative data results were analyzed statistically using one-way analysis of variance (ANOVA) between groups, followed by Dunnett's multiple comparison method. Two-tailed analysis was used for statistics, and the statistical significance level was set at P<0.05.

[1] = 4.5 mg/kg, QD, total weekly dose 31.5 mg/kg
[2] = 9.0 mg/kg, QD, total weekly dose 63.0 mg/kg
[3] = 10.5 mg/kg, TIW, total weekly dose 31.5 mg/kg
[4] = 15.0 mg/kg, QD, total weekly dose 105.0 mg/kg
[5] = 21.0 mg/kg, TIW, total weekly dose 63.0 mg/kg
[6] = 31.5 mg/kg, QW, total weekly dose 31.5 mg/kg
[7] = 35.0 mg/kg, TIW, total weekly dose 105.0 mg/kg
[8] = 63.0 mg/kg, QW, total weekly dose 63.0 mg/kg
[9] = 105.0 mg/kg, QW, total weekly dose 105.0 mg/kg

## O=C(O)CNC(=O)C1=C(O)C2(CCCC2)n2c(ccc2-c2ccccc2)C1=O [Comp-1, (6′-hydroxy-8′-oxo-3′-phenyl-8′H-spiro[cyclopentane-1,5′-indolizine]-7′-carbonyl)glycine]
[1]
  Hb Day 0: 15.2 ± 0.61 g/dL
  Hb Day 14: 18.2 ± 0.52 g/dL
  Hb Day 28: 19.7 ± 0.53 g/dL
[2]
  Hb Day 0: 15.3 ± 0.51 g/dL
  Hb Day 14: 20.6 ± 0.44 g/dL
  Hb Day 28: 23.1 ± 0.80 g/dL
[3]
  Hb Day 0: 15.3 ± 0.66 g/dL
  Hb Day 14: 17.9 ± 0.54 g/dL
  Hb Day 28: 19.2 ± 0.22 g/dL
[4]
  Hb Day 0: 15.3 ± 0.48 g/dL
  Hb Day 14: 20.1 ± 0.54 g/dL
  Hb Day 28: 22.8 ± 0.29 g/dL
[5]
  Hb Day 0: 15.3 ± 0.49 g/dL
  Hb Day 14: 19.7 ± 0.77 g/dL
  Hb Day 28: 22.0 ± 0.11 g/dL
[6]
  Hb Day 0: 15.3 ± 0.48 g/dL
  Hb Day 14: 16.7 ± 0.40 g/dL
  Hb Day 28: 17.2 ± 0.52 g/dL
[7]
  Hb Day 0: 15.3 ± 0.44 g/dL
  Hb Day 14: 18.9 ± 0.11 g/dL
  Hb Day 28: 22.4 ± 0.57 g/dL
[8]
  Hb Day 0: 15.3 ± 0.51 g/dL
  Hb Day 14: 17.4 ± 0.62 g/dL
  Hb Day 28: 18.5 ± 0.74 g/dL
[9]
  Hb Day 0: 15.3 ± 0.50 g/dL
  Hb Day 14: 19.0 ± 0.40 g/dL
  Hb Day 28: 20.0 ± 0.48 g/dL
Day 14 and Day 28, all groups receiving Comp-1, P<0.001
  mean hemoglobin values vs Vehicle control group: significantly different
